Experimental findings from patent US11840551B2, “Compositions and methods of modulating the immune response by activating alpha protein kinase 1” (Shanghai Yao Yuan Biotechnology Co., Ltd., priority 2017, dated 2023) are described below.

In experiment [1] the test system is mouse bone marrow-derived macrophages. As to the kind of experiment: Cxcl1 mRNA expression in bone marrow-derived macrophages (qPCR). The format is cell-based. Particulars: 0.4 nM or 2 nM H1b-ADP, 2.5 hours. On the procedure: In these experiments, mouse bone marrow-derived macrophages were treated with 0.4 nM or 2 nM H1b-ADP for 2.5 hours and harvested for mRNA expression analysis of Cxcl1 by qPCR. […] Accordingly, very low doses of H1b-ADP, or an agonist thereof, may be used to enhance or potentiate an immune response in a local tissue.
(Quantitative PCR measures a nucleic acid by following its amplification.)

The target in experiment [2] is T1, ALPK1 (Homo sapiens, UniProt Q96QP1). As to the kind of experiment: Cell-free kinase assay of ALPK1-dependent phosphorylation of IκB. The format is biochemical. Particulars: 2 nM ALPK1, with or without ATP, 1 hour. As to the method:
We next tested whether H1b-ADP-induced autophosphorylation of ALPK1 was effective to activate NFκB using phosphorylation of IκB as a marker for this activity. Phosphorylation assays were performed according to standard protocols and phosphorylated protein was detected by gel electrophoresis and Western blotting using an antibody that detects phosphorylated IκB. Briefly, assays were performed in a 20 μl volume at 25° C. in assay buffer (25 mM HEPES pH 7.5, 50 mM KCl, 0.1 mM EDTA, 0.1 mM EGTA, 2 mM DTT, 1.5 mM CaCl2, 10 mM MgCl2) containing 2 nM ALPK1 and H1b-ADP […] with or without ATP, or either ALPK1 alone or H1b-ADP alone, both in the presence of ATP. After 1 hour of incubation, the reaction was loaded to denaturing gel for protein electrophoresis and Western was performed to detect phosphorylation of 1 kB using p-IkB antibody (Abcam).

In another experiment the test system is CT26 cells. As to the kind of experiment: CT26 tumor xenograft model, tumor growth (tumor volume). The format is in vivo, BALB/c mice. On the procedure: We used a CT26 tumor xenograft model to test the anti-cancer activity of H1b-ADP. Tumor cells (2×10^5 per 100 uL CT26 cells) were inoculated subcutaneously into the right flank of BALB/c mice. At day 6, mice whose tumors had reached 3-5 mm in diameter were randomized and grouped into three groups (n=8 each group), control, HMP-1bP (580 ug), and H1b-ADP (1.2 ug). Injections were performed using a total volume of 20 uL at days 6, 8, 10, 12, and 14 post inoculation. Tumor volumes were calculated every 2 days from caliper measurements of tumor dimension using the formula (L×W^2)/2, where L is the longer measurement.
To test whether H1b-ADP could augment an anti-tumor response by a checkpoint inhibitor, we tested the effects of co-administration with an anti-PD1 antibody. Tumor cells (2×10^5 per 100 μL CT26 cells) were inoculated subcutaneously into the left and right flanks of BALB/c mice. At day 7, mice whose tumors had reached 5 mm in diameter were randomized and grouped (n=8 each group) into the following four groups: anti-PD1 antibody; rat IgG; H1b-ADP+rat IgG; H1b-ADP+anti-PD1 antibody. We utilized RMP1-14 as the anti-PD1 antibody (10 mg/kg) and a rat IgG 2a (2A3) as the control IgG. Each of the anti-PD-1 antibody and the control IgG was administered intraperitoneally in a 200 μL volume on days 6, 10, 12, and 17 post-inoculation. H1b-ADP (6.2 μg) was intratumorally injected in a 20 μL volume at day 6, 8, 10, 12, and 15. Tumor volumes were calculated every 2 days from caliper measurements of tumor dimensions using the formula (L×W^2)/2, where L is the longer measurement. The results are shown in FIG. 13A for injected tumors and FIG. 13B for distant tumors. […]
The experiment was carried out as combo experiments of anti-PD1 except for the following variations. At day 6, mice whose tumors had reached 5 mm in diameter were randomized and grouped into the following four groups: anti-CTLA-4 antibody; rat IgG; H1b-ADP+rat IgG; H1b-ADP+anti-CTLA-4 antibody. We utilized 9D9 (BioxCell) as the anti-CTLA-4 antibody and a rat IgG 2b isotype (MPC-11 clone, BE0086, BioXCell) as the control IgG. Each of the anti-CTLA-4 antibody (25 μg) and the control IgG (25 μg) was administered intraperitoneally in a 200 μL volume on days 6 and 9 post-inoculation. H1b-ADP (6.2 μg) was administered intratumorally in a 20 μL volume on days 6, 7, 9, 11 post-inoculation.
The experiment was carried out as combo experiments of anti-PD1 except for the following variations. At day 6, mice whose tumors had reached 5 mm in diameter were randomized and grouped into the following four groups: c-di-AM(PS)2; PBS; H1b-ADP; H1b-ADP+c-di-AM(PS)2. We utilized c-di-AM(PS)2 as the STING agonist. […]

Experiment [3] addresses T1, ALPK1. Put plainly: Thermal shift assay (SYPRO Orange) for binding to ALPK1. The settings on record: ALPK1 7 uM; 1, 5, 25, 125 uM compound; H1b-ADP shift at 5, 25 and 125 uM. The text has this: The thermal shift assay is widely used to determine the binding of a molecule to a protein of interest. The assay is based on the increase in thermal energy required for denaturation of a protein where another molecule is bound to the protein. SYPRO Orange is a fluorescent compound used in the detection of thermal shift. SYPRO Orange binds to hydrophobic surfaces of the protein, and water strongly quenches its fluorescence. When the protein unfolds, the exposed hydrophobic surfaces bind the dye, resulting in an increase in fluorescence. When another molecule is bound to the protein, an increase in the temperature required for unfolding of the protein is observed.
This assay system was used to determine whether or not chemically synthesized HBP, HMP-1bP, and H1b-ADP directly bind to ALPK1. […] Only H1b-ADP induced a shift of more than 1 degree, at each of the three highest concentrations tested, 5 uM, 25 uM, and 125 uM.

T1 sequence (Q96QP1 whole entry): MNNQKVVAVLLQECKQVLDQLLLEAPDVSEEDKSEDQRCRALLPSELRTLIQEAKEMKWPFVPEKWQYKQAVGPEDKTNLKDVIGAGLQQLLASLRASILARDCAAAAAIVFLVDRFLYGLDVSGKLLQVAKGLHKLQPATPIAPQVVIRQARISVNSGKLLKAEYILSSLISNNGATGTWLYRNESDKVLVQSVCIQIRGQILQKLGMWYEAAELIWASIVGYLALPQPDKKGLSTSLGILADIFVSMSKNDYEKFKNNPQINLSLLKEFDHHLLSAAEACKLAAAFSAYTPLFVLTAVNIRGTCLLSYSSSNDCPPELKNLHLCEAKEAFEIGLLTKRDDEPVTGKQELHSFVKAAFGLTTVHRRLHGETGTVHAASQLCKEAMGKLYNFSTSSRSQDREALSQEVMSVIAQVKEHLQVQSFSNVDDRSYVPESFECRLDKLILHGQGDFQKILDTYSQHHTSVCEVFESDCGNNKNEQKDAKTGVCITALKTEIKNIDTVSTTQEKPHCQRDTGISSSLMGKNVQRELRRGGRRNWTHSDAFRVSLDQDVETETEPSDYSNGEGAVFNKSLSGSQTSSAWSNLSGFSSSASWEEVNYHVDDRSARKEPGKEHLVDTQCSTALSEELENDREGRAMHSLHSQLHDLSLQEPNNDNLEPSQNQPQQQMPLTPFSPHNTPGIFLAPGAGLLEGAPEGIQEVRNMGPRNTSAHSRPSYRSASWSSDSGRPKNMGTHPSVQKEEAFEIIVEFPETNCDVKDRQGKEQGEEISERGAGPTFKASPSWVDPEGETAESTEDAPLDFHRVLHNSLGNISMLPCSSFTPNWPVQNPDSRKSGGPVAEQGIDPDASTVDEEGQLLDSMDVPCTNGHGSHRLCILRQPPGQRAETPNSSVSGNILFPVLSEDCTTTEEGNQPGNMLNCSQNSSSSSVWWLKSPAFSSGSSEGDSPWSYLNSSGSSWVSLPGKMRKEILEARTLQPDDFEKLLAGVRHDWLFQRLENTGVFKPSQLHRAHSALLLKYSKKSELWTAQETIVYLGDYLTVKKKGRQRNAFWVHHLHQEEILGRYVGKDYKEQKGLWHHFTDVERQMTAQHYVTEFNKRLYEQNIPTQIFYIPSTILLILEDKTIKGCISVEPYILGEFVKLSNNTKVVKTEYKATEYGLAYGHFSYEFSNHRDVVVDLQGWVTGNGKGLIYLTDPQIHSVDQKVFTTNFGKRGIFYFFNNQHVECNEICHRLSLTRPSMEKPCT

Consider `Nc1ncnc2c1ncn2[C@@H]1O[C@H](COP(=O)(O)OP(=O)(O)O[C@@H]2O[C@H]([C@H](O)CO)[C@@H](O)[C@H](O)[C@@H]2O)[C@@H](O)[C@H]1O` [Compound H1b-ADP, D-glycero-D-manno-heptose-1β-ADP], for which the “Cxcl1 mRNA expression, fold change over non-treated control” value in experiment [1] is “showed a dose-dependent response”. The IκB phosphorylation result on ALPK1 [2] was “IkB phosphorylation was detected only in the presence of both ALPK1 and H1b-ADP in the presence of ATP”. Moreover, the tumor growth entry in the experiment with CT26 cells (Example 7, H1b-ADP 6.2 μg intratumoral, anti-PD1 antibody 10 mg/kg intraperitoneal, injected and distant tumors) was “markedly suppressed tumor growth”.
For `O=P(O)(O)O[C@@H]1O[C@H]([C@H](O)CO)[C@@H](O)[C@H](O)[C@@H]1O` [HMP-1bP, D-glycero-β-D-manno-heptose-1-phosphate], on ALPK1 [3], the “thermal shift of ALPK1” value is reported as “Neither HBP nor HMP-1bP were able to induce a thermal shift”. For the same compound, the tumor growth entry with CT26 cells (intratumoral, days 6, 8, 10, 12, 14, HMP-1bP 580 ug, H1b-ADP 1.2 ug) was “but not HMP-1bP, reduced tumor growth”.
